Results published in patent publication US20250255304A1, “HIGHLY TRA[…] CONTROLLING COMPOSITION” (ZM Crop Protection Corporation, priority 2022, published 2025).

Tests used:
Assay type in all cases: in vivo
[1] = test system: Coptotermes formosanus Shiraki; test: Test Example 2: primary transmission treatment effect
Method: (§1) A test agent solution containing 0.023 parts of dicloromezotiaz was prepared by adding 99.875 parts of water to 0.125 parts of the aqueous suspension composition shown in Formulation Example 1. As comparative examples, four types of commercially available neonicotinoid termite controlling agents and four types of slow-acting termite controlling agents shown in Table 2 were diluted with water at practical concentrations to prepare test agent solutions. The “agent concentration (%)” indicates the concentration of the active ingredient contained in each of the composition of the present invention and the termite controlling agents and the “test agent solution concentration (%)” indicates the concentration of the active ingredient in each of the prepared test agent solutions.
(§2) After 1.2 g of each of the test agent solutions of the example and the comparative examples diluted to a predetermined concentration and prepared was added to 4.8 g of soil, 6 g of the mixed soil was spread in a glass petri dish having a diameter of 50 mm and ten workers of Coptotermes formosanus Shiraki were released into the petri dish and exposed to the agent solution for 4 hours.

[2] = test system: Coptotermes formosanus Shiraki; test: Test Example 2: secondary transmission treatment effect
Method: as §1, §2

[3] = test system: Coptotermes formosanus Shiraki; test: Test Example 3: extirpation test with dust formulation using simulated termite trails; settings: active ingredient concentration 50%
[4] = after 1 day, Table 4, dicloromezotiaz 0.023%, chlorfenapyr 0.11%, clothianidin 0.05%, dinotefuran 0.20%, thiamethoxam 0.10%, broflanilide 0.03% solution in soil
[5] = after 3 days, Table 4, dicloromezotiaz 0.023%, chlorfenapyr 0.11%, clothianidin 0.05%, dinotefuran 0.20%, thiamethoxam 0.10%, broflanilide 0.03% solution in soil
[6] = after 7 days, Table 4, dicloromezotiaz 0.023%, chlorfenapyr 0.11%, clothianidin 0.05%, dinotefuran 0.20%, thiamethoxam 0.10%, broflanilide 0.03% solution in soil
[7] = after 14 days, Table 4, dicloromezotiaz 0.023%, chlorfenapyr 0.11%, clothianidin 0.05%, dinotefuran 0.20%, thiamethoxam 0.10%, broflanilide 0.03% solution in soil
[8] = after 21 days, Table 4, dicloromezotiaz 0.023%, chlorfenapyr 0.11%, clothianidin 0.05%, dinotefuran 0.20%, thiamethoxam 0.10%, broflanilide 0.03% solution in soil
[9] = after 1 day, Table 6, dicloromezotiaz 0.023%, chlorfenapyr 0.11%, clothianidin 0.05%, dinotefuran 0.20%, thiamethoxam 0.10%, broflanilide 0.03% solution in soil
[10] = after 3 days, Table 6, dicloromezotiaz 0.023%, chlorfenapyr 0.11%, clothianidin 0.05%, dinotefuran 0.20%, thiamethoxam 0.10%, broflanilide 0.03% solution in soil
[11] = after 7 days, Table 6, dicloromezotiaz 0.023%, chlorfenapyr 0.11%, clothianidin 0.05%, dinotefuran 0.20%, thiamethoxam 0.10%, broflanilide 0.03% solution in soil
[12] = after 14 days, Table 6, dicloromezotiaz 0.023%, chlorfenapyr 0.11%, clothianidin 0.05%, dinotefuran 0.20%, thiamethoxam 0.10%, broflanilide 0.03% solution in soil
[13] = after 21 days, Table 6, dicloromezotiaz 0.023%, chlorfenapyr 0.11%, clothianidin 0.05%, dinotefuran 0.20%, thiamethoxam 0.10%, broflanilide 0.03% solution in soil

Row | Compound | Abnormal or dead termite rate (%) [1, 4] | Abnormal or dead termite rate (%) [1, 5] | Abnormal or dead termite rate (%) [1, 6] | Abnormal or dead termite rate (%) [1, 7] | Abnormal or dead termite rate (%) [1, 8] | Abnormal or dead termite rate (%) [2, 9] | Abnormal or dead termite rate (%) [2, 10] | Abnormal or dead termite rate (%) [2, 11] | Abnormal or dead termite rate (%) [2, 12] | Abnormal or dead termite rate (%) [2, 13] | also measured
1 | CN1COCN(Cc2cnc(Cl)s2)/C1=N\[N+](=O)[O-] [Thiamethoxam] | 98% | 91% | 98% | 95% | 96% | 0% | 0% | 3.3% | 3.3% | 4.4% | 
2 | CN/C(=N\[N+](=O)[O-])NCc1cnc(Cl)s1 [Clothianidin] | 94% | 89% | 75% | 91% | 94% | 0% | 0% | 3.3% | 3.3% | 4.4% | 
3 | CN(C(=O)c1ccccc1)c1cccc(C(=O)Nc2c(Br)cc(C(F)(C(F)(F)F)C(F)(F)F)cc2C(F)(F)F)c1F [Broflanilide] | 100% | 73% | 48% | 53% | 56% | 2.2% | 0% | 3.3% | 5.6% | 6.7% | 
4 | CCOCn1c(-c2ccc(Cl)cc2)c(C#N)c(Br)c1C(F)(F)F [Chlorfenapyr] | 89% | 80% | 89% | 100% | 100% | 0% | 0% | 3.3% | 7.8% | 31% | 
5 | CNC(=O)c1cc(Cl)cc(C)c1NC(=O)c1cc(Br)nn1-c1ncccc1Cl [Chlorantraniliprole] |  |  |  |  |  |  |  |  |  |  | Abnormal or dead termite rate (%) ([1]; after 1 day, Table 3, dicloromezotiaz 0.023%, fipronil 0.03%, imidacloprid 0.10%, chlorantraniliprole 0.05% solution in soil): 98%; Abnormal or dead termite rate (%) ([1]; after 3 days, Table 3, dicloromezotiaz 0.023%, fipronil 0.03%, imidacloprid 0.10%, chlorantraniliprole 0.05% solution in soil): 100%; Abnormal or dead termite rate (%) ([1]; after 7 days, Table 3, dicloromezotiaz 0.023%, fipronil 0.03%, imidacloprid 0.10%, chlorantraniliprole 0.05% solution in soil): 85%; Abnormal or dead termite rate (%) ([1]; after 14 days, Table 3, dicloromezotiaz 0.023%, fipronil 0.03%, imidacloprid 0.10%, chlorantraniliprole 0.05% solution in soil): 80%; Abnormal or dead termite rate (%) ([1]; after 21 days, Table 3, dicloromezotiaz 0.023%, fipronil 0.03%, imidacloprid 0.10%, chlorantraniliprole 0.05% solution in soil): 85%; Abnormal or dead termite rate (%) ([2]; after 1 day, Table 5, dicloromezotiaz 0.023%, fipronil 0.03%, imidacloprid 0.10%, chlorantraniliprole 0.05% solution in soil): 10%; Abnormal or dead termite rate (%) ([2]; after 3 days, Table 5, dicloromezotiaz 0.023%, fipronil 0.03%, imidacloprid 0.10%, chlorantraniliprole 0.05% solution in soil): 2.2%; Abnormal or dead termite rate (%) ([2]; after 7 days, Table 5, dicloromezotiaz 0.023%, fipronil 0.03%, imidacloprid 0.10%, chlorantraniliprole 0.05% solution in soil): 1.1%; Abnormal or dead termite rate (%) ([2]; after 14 days, Table 5, dicloromezotiaz 0.023%, fipronil 0.03%, imidacloprid 0.10%, chlorantraniliprole 0.05% solution in soil): 2.2%; Abnormal or dead termite rate (%) ([2]; after 21 days, Table 5, dicloromezotiaz 0.023%, fipronil 0.03%, imidacloprid 0.10%, chlorantraniliprole 0.05% solution in soil): 7.8%
6 | N#Cc1ccc(CC(=NNC(=O)Nc2ccc(OC(F)(F)F)cc2)c2cccc(C(F)(F)F)c2)cc1 (mixture of isomers) [Metaflumizone, metaflumizone] |  |  |  |  |  |  |  |  |  |  | Abnormal or dead termite rate (%) ([3]; 1 h): 0%; Abnormal or dead termite rate (%) ([3]; 2 h): 0%; Abnormal or dead termite rate (%) ([3]; 3 h): 0%; Abnormal or dead termite rate (%) ([3]; 4 h): 0%; Abnormal or dead termite rate (%) ([3]; 5 h): 0%; Abnormal or dead termite rate (%) ([3]; 6 h): 0%; Abnormal or dead termite rate (%) ([3]; 7 h): 0%; Abnormal or dead termite rate (%) ([3]; 1 day): 100%; Abnormal or dead termite rate (%) ([3]; 2 days): 100%; Abnormal or dead termite rate (%) ([3]; 3 days): 100%; Abnormal or dead termite rate (%) ([3]; 7 days): 100%
7 | CN/C(=N/CC1CCOC1)N[N+](=O)[O-] (centres unmarked) [Dinotefuran] | 93% | 94% | 96% | 98% | 99% | 24% | 18% | 16% | 18% | 22% | 
